Laboratory results from PubChem BioAssay (NCI).
Several values for one entry are separate records, joined by “and”; a condition that tells them apart may be missing. Identical values can stand only once.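 48-hour exposure; five concentrations; linearly interpolated endpoints. GI50 marks 50% less growth. TGI denotes the concentration required for complete inhibition of growth.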

Test system: MDA-MB-468 breast
Test: NCI anticancer screen, dose series, 48 h

Row | Compound | GI50 | TGI
1 | CC(C)c1cnn2c(NCc3ccccc3)cc(NC[C@H]3CCNC[C@@H]3O)nc12 | 0.381 µM and 0.519 µM | 1.79 µM and 2.33 µM
2 | CC[C@H](Nc1ncnc2nc[nH]c12)c1nc2cccc(F)c2c(=O)n1-c1ccccc1 | 2.1 µM | 10.4 µM
3 | O=C(NOC[C@H](O)CO)c1ccc(F)c(F)c1Nc1ccc(I)cc1F | 13.9 µM | > 100 µM
4 | CCCCCCCCCCCCCCCCCC1=NC(C)(C)CN1CC(C)O (stereo not drawn) | 12.1 µM | 24.4 µM
5 | Cn1c(C(=O)c2ccncc2)cc2ccccc21 | 32.3 µM | > 100 µM
6 | O=[N+]([O-])c1cc(Cl)c2[nH]c3c(Cl)cc([N+](=O)[O-])cc3c2c1 | 0.169 µM | 2.26 µM
7 | FC(F)(c1ccc2ncccc2c1)c1nnc2ccc(-c3ccncc3)nn12 | 53.5 µM | > 100 µM
8 | CCCCCCCCOC(=O)CC[C@@H](C)[C@H]1CC[C@H]2[C@@H]3[C@H](OC(=O)CCN)C[C@@H]4C[C@H](OC(=O)CCN)CC[C@]4(C)[C@H]3C[C@H](OC(=O)CCN)[C@]12C | 2.49 µM | 7.17 µM
9 | CC(=O)Oc1ccc(C23c4ccccc4C2(OC(C)=O)c2cc(OC(C)=O)ccc23)cc1 (stereo not drawn) | 0.57 µM | 5.02 µM
10 | COc1cc(OC)c(C(=O)/C=C/c2cc3c(cc2OCc2ccccc2)OC(C)(C)CC3)cc1CC=C(C)C | 1.86 µM | 7.84 µM
11 | O=C1/C(=C/c2cccc(Br)c2)COc2ccc(O)cc21 | 1.75 µM | 4.33 µM
12 | CC(C)Nc1cc(-c2c[nH]c(C(=O)N[C@H](CO)c3cccc(Cl)c3)c2)c(Cl)cn1 | 3.54 µM and 5.12 µM | 18.3 µM and > 10 µM
13 | CC(=O)c1ccc2c(c1)C1C=CCC1[C@H](c1cc3c(cc1Br)OCO3)N2 (stereo partly drawn) | 0.308 µM | 
14 | C[C@@H]1C[C@H](C)CN(S(=O)(=O)c2ccc3c(NO)c4ccc(S(=O)(=O)N5C[C@H](C)C[C@H](C)C5)cc4c(N=O)c3c2)C1 | 0.154 µM | 0.312 µM
15 | O=C(/C=C/C12c3ccccc3C(c3ccccc31)C1C(=O)NC(=O)C12)c1ccc(Cl)cc1Cl (stereo not drawn) | 1.96 µM | 4.13 µM
16 | CCOC(=O)C(Cc1c[nH]c2c(N(CCO)CCO)cccc12)(NC(C)=O)C(=O)OCC |  | 132 µM
17 | CCC(O)c1ccc(Br)cc1NC(=O)c1cccc(Cl)c1 (stereo not drawn) | 20.3 µM | 56.5 µM
18 | O=c1c2cc(F)ccc2sc2c(N3CCNCC3)nc3ccc(F)cc3c12 | 1.58 µM | 3.05 µM
19 | COc1ccc(/C=C/C(=O)/C=C/c2cc3ccccc3[nH]c2=O)cc1 | 2.32 µM | 6.59 µM
20 | O=S(=O)(NCCNc1nccc(-c2c(-c3ccc(F)c(O)c3)nc3sccn23)n1)c1ccc(F)cc1 | 2.97 µM | 25.5 µM
